The values that follow come from patent EP0434750B1 (priority 1988, dated 1990).

The nature of data set [1]: Binding of MPTP to synthetic dopamine melanin (Scatchard analysis). Here is the method:
Synthetic dopamine melanin is prepared by autooxidation (Lyden et al., supra). The dopamine melanin suspension (in distilled water) is adjusted to contain 5 mg melanin per ml. Both pigment suspensions are stored at 2°C.
(§1) The reaction mixtures are incubated at room temperature for one hour. Reference samples contain distilled water instead of melanin.
(§2) From the obtained data, the classes of binding sites, association constants and the binding capacity of the melanins are estimated according to Scatchard, G. et al., J. Am. Chem. Soc. 79, 12 (1957). As the molecular weight of melanin is unknown, the value for the number of binding sites is expressed as mol per mg melanin. The calculations are based on a melanin content of 2.5 mg per incubation.

The subject of data set [2] is squirrel monkeys. The experiment in a line: Treatment of MPTP-induced parkinsonism in squirrel monkeys. Type of data set: in vivo. Particulars: i.p. MPTP, three dosage schedules (Groups A-C). Here is the method: Male squirrel monkeys (aged 2-3 years) are used for this study. […] All injections are intraperitoneal.
Three different dosage schedules of MPTP are used. Monkey Group A receives four doses, 2 mg/kg each, which are given at two-hour intervals. Monkey Group B is treated over a five-day period. On day 1, a single 2 mg/kg dose is given. On day 3, two injections of 2 mg/kg each are given, six hours apart. On day 5, a 3 mg/kg dose is given followed by a 0.5 mg/kg dose four hours later (total dose: 9.5 mg/kg). Three doses of 3 mg/kg each are given to Monkey Group C, spaced at six-day intervals. Monkey Group D serves as a control.
A similar response to the same treatment is observed on each of the next four days. Subsequently, the animal becomes less responsive to medication and is sacrificed on day 10. One monkey in Group B responds to Sinemet® (one-eighth of a 10/100 tablet) with full mobility on day 9. However, on subsequent days, […] becomes increasingly less responsive to medication, often appearing uncoordinated and shaky. This monkey is sacrificed on day 15. […] Three days later, this monkey becomes profoundly hypokinetic, develops slow respirations, and dies.
After increased bradykinesis and frequent nodding-off are observed in the monkeys, several monkeys of Groups A, B and C are administered melanin by injection into the cerebrospinal fluid at a dose of 50 mg/kg daily. […]

Data set [3] is described as follows: Binding of MPTP to beef eye melanin (Scatchard analysis). Here is the method: Melanin from beef eyes is prepared according to Potts, A.M., Ophthalmol. 3, 405 (1964). The pigment is finally suspended in distilled water to a concentration of 10 mg (by dry weight) per ml suspension.
as §1, §2

Consider `CN1CC=C(c2ccccc2)CC1` [MPTP, 1-Methyl-4-phenyl-1,2,5,6-tetrahydropyridine], for which the “number of binding sites n1” value in data set [1] (first class of binding sites) is recorded as “n1 = 0.08 µ mole per mg melanin”; in data set [3] (first class of binding sites) it was “n1 = 0.09 µ mole per mg melanin”. Also, the “association constant K1” value is “K1 = 5.82 x 10^5 M^-1” in data set [1] (first class of binding sites, 60 min) and “K1 = 2.32 x 10^5 M^-1” in data set [3] (MPTP 5.7 µM - […], room temperature, one hour, first class of binding sites, 60 min). For the same compound, the “association constant K2” value in data set [1] (second (intermediary) class of binding sites, 60 min) is recorded as “K2 = 1.22 x 10^4 M^-1”; in data set [3] (second class of binding sites, 60 min) it was “K2 = 1.22 x 10^3 M^-1”. Besides, the “number of binding sites n2” value was “n2 = 0.05 µ mole per mg melanin” in data set [1] (second class of binding sites) and “n2 = 0.44 µ mole per mg melanin” in data set [3] (second class of binding sites). Besides, the “number of binding sites n3” value in data set [1] (third class of binding sites) is on record as “n3 = 0.14 µ mole per mg melanin”. Further, the “association constant K3” value in data set [1] (third class of binding sites, 60 min) is on record as “K3 = 7.68 x 10^2 M^-1”. The “behavioural effect of MPTP” value in data set [2] is listed as “profoundly akinetic”. The “total binding capacity (Σn)” value in data set [3] (beef eye melanin) is recorded as 0.53 µmol/mg melanin.
